{"source": "patent EP1433789A1", "about": "“Pyrrolopyrazines and their use as selective apoptosis inducers” (Aponetics AG, priority 2002, dated 2004)", "type_in_all_cases": "cell-based, human", "key": {"HeLa [1]": {"system": "HeLa", "assay": "PI staining for cell cycle distribution", "design": "key: 0 indicates no occurrence at all; 1 for weak; 2 for strong occurrence", "conditions": "HeLa 10 µM, 24 h", "experimental": "(§1) 1 - 2*10^5 cells are seeded into 24 well tissue culture plates and incubated for 24 h prior to compound addition. Compounds are added for 24 h in a final concentration of 3 µM or 10 µM. Adherent cells are harvested by trypsinization. The cell suspensions are fixed by adding 2 parts ice cold ethanol 100% while vortexing. Then the samples are stored for > 2 h at-20°C. Subsequently the cells are washed with PBS once and resuspended in 250 µl PBS containing 50 µg/ml PI (Calbiochem # 537059), then the samples are incubated at 37°C for 30 minutes and subsequently analyzed on a FACSCalibur™ monitoring linear PI fluorescence activity on FL2.. The readout allows the detection of a possible direct or indirect influence of the tested compounds on the cell cycle. The following events can occur: a) Generation of a subG1 peak indicative for DNA fragmentation, b) increase of the cell population arrested in G2M phase. Both events are scored by 1 for weak and 2 for strong occurrence. 0 indicates no occurrence at all. […]"}, "Jurkat": {"system": "Jurkat", "assay": "PI staining for cell cycle distribution", "design": "key: 0 indicates no occurrence at all; 1 for weak; 2 for strong occurrence", "conditions": "Jurkat 3 uM, 24 h", "experimental": "as §1"}, "HeLa [2]": {"system": "HeLa", "assay": "Hoechst 33342 nuclear staining (Table 3)", "design": "key: 0 relating to no activity; 1 relating to weak activity comprising less than 50% of the cells; score 2 relating to strong activity comprising more than 50% of the cells", "method_in_brief": "(§2)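 Adherent cells (3-5×10^3, pre-spread 24 h) or suspension cells (8-10×10^3) treated with compounds at 10, 3, 1 and 0.3 µM for 24 or 48 h, then Hoechst 33342 stained for 30 min. Apoptotic nuclear morphology scored by fluorescence microscopy: 0 none, 1 weak (<50% cells), 2 strong (>50% cells).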"}, "Ramos": {"system": "Ramos", "assay": "Hoechst 33342 nuclear staining (Table 3)", "design": "key: 0 relating to no activity; 1 relating to weak activity comprising less than 50% of the cells; score 2 relating to strong activity comprising more than 50% of the cells", "method_in_brief": "as §2"}, "K562": {"system": "K562", "assay": "Hoechst 33342 nuclear staining (Table 3)", "design": "key: 0 relating to no activity; 1 relating to weak activity comprising less than 50% of the cells; score 2 relating to strong activity comprising more than 50% of the cells", "method_in_brief": "as §2"}, "HBL 100": {"system": "HBL 100", "assay": "Hoechst 33342 nuclear staining (Table 3)", "design": "key: 0 relating to no activity; 1 relating to weak activity comprising less than 50% of the cells; score 2 relating to strong activity comprising more than 50% of the cells", "method_in_brief": "as §2"}, "HT 1080": {"system": "HT 1080", "assay": "Hoechst 33342 nuclear staining (Table 3)", "design": "key: 0 relating to no activity; 1 relating to weak activity comprising less than 50% of the cells; score 2 relating to strong activity comprising more than 50% of the cells", "method_in_brief": "as §2"}}}
{"smiles": "COc1cc2c(cc1OC)-c1c(Br)c3nc4ccccc4nc3n1C(C)C2", "note": "(stereo not shown) [compound 10]", "values": [{"measurement": "G2M (increase of the cell population arrested in G2M phase)", "setting": "HeLa [1]", "result": 0}, {"measurement": "subG1 (generation of a subG1 peak indicative for DNA fragmentation)", "setting": "HeLa [1]", "result": 0}, {"measurement": "G2M (increase of the cell population arrested in G2M phase)", "setting": "Jurkat", "result": 0}, {"measurement": "subG1 (generation of a subG1 peak indicative for DNA fragmentation)", "setting": "Jurkat", "result": 0}, {"measurement": "Hoechst 33342 nuclear staining", "setting": "HeLa [2]; 24h, conc 0.3 (µM)", "result": 0}, {"measurement": "Hoechst 33342 nuclear staining", "setting": "HeLa [2]; 24h, conc 1 (µM)", "result": 0}, {"measurement": "Hoechst 33342 nuclear staining", "setting": "HeLa [2]; 24h, conc 3 (µM)", "result": 0}, {"measurement": "Hoechst 33342 nuclear staining", "setting": "HeLa [2]; 24h, conc 10 (µM)", "result": "2 (score 2 relating to strong activity comprising more than 50% of the cells)"}, {"measurement": "Hoechst 33342 nuclear staining", "setting": "HeLa [2]; 48h, conc 0.3 (µM)", "result": 0}, {"measurement": "Hoechst 33342 nuclear staining", "setting": "HeLa [2]; 48h, conc 1 (µM)", "result": 0}, {"measurement": "Hoechst 33342 nuclear staining", "setting": "HeLa [2]; 48h, conc 3 (µM)", "result": "2 (score 2 relating to strong activity comprising more than 50% of the cells)"}, {"measurement": "Hoechst 33342 nuclear staining", "setting": "HeLa [2]; 48h, conc 10 (µM)", "result": "2 (score 2 relating to strong activity comprising more than 50% of the cells)"}, {"measurement": "Hoechst 33342 nuclear staining", "setting": "Ramos; 24h, conc 0.3 (µM)", "result": 0}, {"measurement": "Hoechst 33342 nuclear staining", "setting": "Ramos; 24h, conc 1 (µM)", "result": 0}, {"measurement": "Hoechst 33342 nuclear staining", "setting": "Ramos; 24h, conc 3 (µM)", "result": 0}, {"measurement": "Hoechst 33342 nuclear staining", "setting": "Ramos; 24h, conc 10 (µM)", "result": "2 (score 2 relating to strong activity comprising more than 50% of the cells)"}, {"measurement": "Hoechst 33342 nuclear staining", "setting": "Ramos; 48h, conc 0.3 (µM)", "result": 0}, {"measurement": "Hoechst 33342 nuclear staining", "setting": "Ramos; 48h, conc 1 (µM)", "result": "2 (score 2 relating to strong activity comprising more than 50% of the cells)"}, {"measurement": "Hoechst 33342 nuclear staining", "setting": "Ramos; 48h, conc 3 (µM)", "result": "2 (score 2 relating to strong activity comprising more than 50% of the cells)"}, {"measurement": "Hoechst 33342 nuclear staining", "setting": "Ramos; 48h, conc 10 (µM)", "result": "2 (score 2 relating to strong activity comprising more than 50% of the cells)"}, {"measurement": "Hoechst 33342 nuclear staining", "setting": "K562; K562, 24h, conc 0.3 (µM)", "result": 0}, {"measurement": "Hoechst 33342 nuclear staining", "setting": "K562; K562, 24h, conc 1 (µM)", "result": 0}, {"measurement": "Hoechst 33342 nuclear staining", "setting": "K562; K562, 24h, conc 3 (µM)", "result": "2 (score 2 relating to strong activity comprising more than 50% of the cells)"}, {"measurement": "Hoechst 33342 nuclear staining", "setting": "K562; K562, 24h, conc 10 (µM)", "result": "2 (score 2 relating to strong activity comprising more than 50% of the cells)"}, {"measurement": "Hoechst 33342 nuclear staining", "setting": "K562; K562, 48h, conc 0.3 (µM)", "result": 0}, {"measurement": "Hoechst 33342 nuclear staining", "setting": "K562; K562, 48h, conc 1 (µM)", "result": "2 (score 2 relating to strong activity comprising more than 50% of the cells)"}, {"measurement": "Hoechst 33342 nuclear staining", "setting": "K562; K562, 48h, conc 3 (µM)", "result": "2 (score 2 relating to strong activity comprising more than 50% of the cells)"}, {"measurement": "Hoechst 33342 nuclear staining", "setting": "K562; K562, 48h, conc 10 (µM)", "result": "2 (score 2 relating to strong activity comprising more than 50% of the cells)"}, {"measurement": "Hoechst 33342 nuclear staining (fraction of apoptotic nuclei), score", "setting": "HBL 100; HBL 100, 24h, 0.3 µM", "result": "1 (1 relating to weak activity comprising less than 50% of the cells)"}, {"measurement": "Hoechst 33342 nuclear staining (fraction of apoptotic nuclei), score", "setting": "HBL 100; HBL 100, 24h, 1 µM", "result": "2 (score 2 relating to strong activity comprising more than 50% of the cells)"}, {"measurement": "Hoechst 33342 nuclear staining (fraction of apoptotic nuclei), score", "setting": "HBL 100; HBL 100, 24h, 3 µM", "result": "2 (score 2 relating to strong activity comprising more than 50% of the cells)"}, {"measurement": "Hoechst 33342 nuclear staining (fraction of apoptotic nuclei), score", "setting": "HBL 100; HBL 100, 24h, 10 µM", "result": "2 (score 2 relating to strong activity comprising more than 50% of the cells)"}, {"measurement": "Hoechst 33342 nuclear staining (fraction of apoptotic nuclei), score", "setting": "HBL 100; HBL 100, 48h, 0.3 µM", "result": "2 (score 2 relating to strong activity comprising more than 50% of the cells)"}, {"measurement": "Hoechst 33342 nuclear staining (fraction of apoptotic nuclei), score", "setting": "HBL 100; HBL 100, 48h, 1 µM", "result": "2 (score 2 relating to strong activity comprising more than 50% of the cells)"}, {"measurement": "Hoechst 33342 nuclear staining (fraction of apoptotic nuclei), score", "setting": "HBL 100; HBL 100, 48h, 3 µM", "result": "2 (score 2 relating to strong activity comprising more than 50% of the cells)"}, {"measurement": "Hoechst 33342 nuclear staining (fraction of apoptotic nuclei), score", "setting": "HBL 100; HBL 100, 48h, 10 µM", "result": "2 (score 2 relating to strong activity comprising more than 50% of the cells)"}, {"measurement": "Hoechst 33342 nuclear staining (fraction of apoptotic nuclei), score", "setting": "HT 1080; HT 1080, 24h, 0.3 µM", "result": 0}, {"measurement": "Hoechst 33342 nuclear staining (fraction of apoptotic nuclei), score", "setting": "HT 1080; HT 1080, 24h, 1 µM", "result": "1 (1 relating to weak activity comprising less than 50% of the cells)"}, {"measurement": "Hoechst 33342 nuclear staining (fraction of apoptotic nuclei), score", "setting": "HT 1080; HT 1080, 24h, 3 µM", "result": "2 (score 2 relating to strong activity comprising more than 50% of the cells)"}, {"measurement": "Hoechst 33342 nuclear staining (fraction of apoptotic nuclei), score", "setting": "HT 1080; HT 1080, 24h, 10 µM", "result": "2 (score 2 relating to strong activity comprising more than 50% of the cells)"}, {"measurement": "Hoechst 33342 nuclear staining (fraction of apoptotic nuclei), score", "setting": "HT 1080; HT 1080, 48h, 0.3 µM", "result": 0}, {"measurement": "Hoechst 33342 nuclear staining (fraction of apoptotic nuclei), score", "setting": "HT 1080; HT 1080, 48h, 1 µM", "result": "2 (score 2 relating to strong activity comprising more than 50% of the cells)"}, {"measurement": "Hoechst 33342 nuclear staining (fraction of apoptotic nuclei), score", "setting": "HT 1080; HT 1080, 48h, 3 µM", "result": "2 (score 2 relating to strong activity comprising more than 50% of the cells)"}, {"measurement": "Hoechst 33342 nuclear staining (fraction of apoptotic nuclei), score", "setting": "HT 1080; HT 1080, 48h, 10 µM", "result": "2 (score 2 relating to strong activity comprising more than 50% of the cells)"}]}
{"smiles": "CC1Cc2ccccc2-c2c(Cl)c3nc4ccccc4nc3n21", "note": "(stereo not shown) [compound 11]", "values": [{"measurement": "G2M (increase of the cell population arrested in G2M phase)", "setting": "HeLa [1]", "result": 0}, {"measurement": "subG1 (generation of a subG1 peak indicative for DNA fragmentation)", "setting": "HeLa [1]", "result": 0}, {"measurement": "G2M (increase of the cell population arrested in G2M phase)", "setting": "Jurkat", "result": 0}, {"measurement": "subG1 (generation of a subG1 peak indicative for DNA fragmentation)", "setting": "Jurkat", "result": 0}, {"measurement": "Hoechst 33342 nuclear staining", "setting": "HeLa [2]; 24h, conc 0.3 (µM)", "result": 0}, {"measurement": "Hoechst 33342 nuclear staining", "setting": "HeLa [2]; 24h, conc 1 (µM)", "result": 0}, {"measurement": "Hoechst 33342 nuclear staining", "setting": "HeLa [2]; 24h, conc 3 (µM)", "result": 0}, {"measurement": "Hoechst 33342 nuclear staining", "setting": "HeLa [2]; 24h, conc 10 (µM)", "result": 0}, {"measurement": "Hoechst 33342 nuclear staining", "setting": "HeLa [2]; 48h, conc 0.3 (µM)", "result": 0}, {"measurement": "Hoechst 33342 nuclear staining", "setting": "HeLa [2]; 48h, conc 1 (µM)", "result": 0}, {"measurement": "Hoechst 33342 nuclear staining", "setting": "HeLa [2]; 48h, conc 3 (µM)", "result": 0}, {"measurement": "Hoechst 33342 nuclear staining", "setting": "HeLa [2]; 48h, conc 10 (µM)", "result": "2 (score 2 relating to strong activity comprising more than 50% of the cells)"}, {"measurement": "Hoechst 33342 nuclear staining", "setting": "K562; K562, 24h, conc 0.3 (µM)", "result": 0}, {"measurement": "Hoechst 33342 nuclear staining", "setting": "K562; K562, 24h, conc 1 (µM)", "result": 0}, {"measurement": "Hoechst 33342 nuclear staining", "setting": "K562; K562, 24h, conc 3 (µM)", "result": 0}, {"measurement": "Hoechst 33342 nuclear staining", "setting": "K562; K562, 24h, conc 10 (µM)", "result": "2 (score 2 relating to strong activity comprising more than 50% of the cells)"}, {"measurement": "Hoechst 33342 nuclear staining", "setting": "K562; K562, 48h, conc 0.3 (µM)", "result": 0}, {"measurement": "Hoechst 33342 nuclear staining", "setting": "K562; K562, 48h, conc 1 (µM)", "result": 0}, {"measurement": "Hoechst 33342 nuclear staining", "setting": "K562; K562, 48h, conc 3 (µM)", "result": "1 (1 relating to weak activity comprising less than 50% of the cells)"}, {"measurement": "Hoechst 33342 nuclear staining", "setting": "K562; K562, 48h, conc 10 (µM)", "result": "2 (score 2 relating to strong activity comprising more than 50% of the cells)"}]}
